The structures appear in SMILES notation. The source made the active and inactive calls. The calls are words filed in the database; no cut-off is given here.

Chromatin remodeling regulator CECR2, sequence (Q9BXF3 whole entry): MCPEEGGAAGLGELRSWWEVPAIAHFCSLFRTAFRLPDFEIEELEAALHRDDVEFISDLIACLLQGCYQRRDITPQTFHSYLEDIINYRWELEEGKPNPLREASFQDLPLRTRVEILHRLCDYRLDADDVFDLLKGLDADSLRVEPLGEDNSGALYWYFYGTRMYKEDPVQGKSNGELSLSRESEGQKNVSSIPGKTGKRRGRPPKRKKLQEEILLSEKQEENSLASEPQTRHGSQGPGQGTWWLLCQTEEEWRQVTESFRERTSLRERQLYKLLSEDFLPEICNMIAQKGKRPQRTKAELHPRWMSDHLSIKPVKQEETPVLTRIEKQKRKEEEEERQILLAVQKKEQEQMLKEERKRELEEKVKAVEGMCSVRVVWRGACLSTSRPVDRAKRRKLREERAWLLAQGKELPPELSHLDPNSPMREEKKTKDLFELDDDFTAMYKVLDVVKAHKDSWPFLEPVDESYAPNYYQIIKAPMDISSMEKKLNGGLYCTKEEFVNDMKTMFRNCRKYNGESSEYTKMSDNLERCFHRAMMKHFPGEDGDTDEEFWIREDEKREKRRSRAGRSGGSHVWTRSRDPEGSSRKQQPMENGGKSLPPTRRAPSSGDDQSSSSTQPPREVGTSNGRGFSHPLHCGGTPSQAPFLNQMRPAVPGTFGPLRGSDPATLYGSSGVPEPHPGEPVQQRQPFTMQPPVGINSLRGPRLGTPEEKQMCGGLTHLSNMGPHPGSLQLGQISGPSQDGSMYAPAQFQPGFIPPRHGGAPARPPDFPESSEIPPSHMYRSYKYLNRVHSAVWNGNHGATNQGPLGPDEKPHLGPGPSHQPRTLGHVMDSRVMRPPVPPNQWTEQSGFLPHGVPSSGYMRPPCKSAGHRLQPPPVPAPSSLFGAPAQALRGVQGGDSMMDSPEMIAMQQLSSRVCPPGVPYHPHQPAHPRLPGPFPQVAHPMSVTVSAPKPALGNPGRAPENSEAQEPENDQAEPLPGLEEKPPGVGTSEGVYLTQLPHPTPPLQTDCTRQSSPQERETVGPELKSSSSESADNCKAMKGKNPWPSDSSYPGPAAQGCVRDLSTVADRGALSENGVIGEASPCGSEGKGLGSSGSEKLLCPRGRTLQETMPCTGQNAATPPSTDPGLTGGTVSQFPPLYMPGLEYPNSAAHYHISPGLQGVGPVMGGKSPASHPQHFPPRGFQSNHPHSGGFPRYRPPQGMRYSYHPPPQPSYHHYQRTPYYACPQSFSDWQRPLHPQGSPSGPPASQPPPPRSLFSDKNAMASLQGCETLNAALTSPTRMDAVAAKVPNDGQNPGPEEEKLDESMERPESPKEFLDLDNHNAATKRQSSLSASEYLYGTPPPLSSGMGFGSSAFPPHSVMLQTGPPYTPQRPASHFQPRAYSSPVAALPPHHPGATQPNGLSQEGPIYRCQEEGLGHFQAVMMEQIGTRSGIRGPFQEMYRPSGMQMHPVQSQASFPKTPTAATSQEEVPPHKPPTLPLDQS
Transcription initiation factor TFIID subunit 1, sequence (P21675 whole entry): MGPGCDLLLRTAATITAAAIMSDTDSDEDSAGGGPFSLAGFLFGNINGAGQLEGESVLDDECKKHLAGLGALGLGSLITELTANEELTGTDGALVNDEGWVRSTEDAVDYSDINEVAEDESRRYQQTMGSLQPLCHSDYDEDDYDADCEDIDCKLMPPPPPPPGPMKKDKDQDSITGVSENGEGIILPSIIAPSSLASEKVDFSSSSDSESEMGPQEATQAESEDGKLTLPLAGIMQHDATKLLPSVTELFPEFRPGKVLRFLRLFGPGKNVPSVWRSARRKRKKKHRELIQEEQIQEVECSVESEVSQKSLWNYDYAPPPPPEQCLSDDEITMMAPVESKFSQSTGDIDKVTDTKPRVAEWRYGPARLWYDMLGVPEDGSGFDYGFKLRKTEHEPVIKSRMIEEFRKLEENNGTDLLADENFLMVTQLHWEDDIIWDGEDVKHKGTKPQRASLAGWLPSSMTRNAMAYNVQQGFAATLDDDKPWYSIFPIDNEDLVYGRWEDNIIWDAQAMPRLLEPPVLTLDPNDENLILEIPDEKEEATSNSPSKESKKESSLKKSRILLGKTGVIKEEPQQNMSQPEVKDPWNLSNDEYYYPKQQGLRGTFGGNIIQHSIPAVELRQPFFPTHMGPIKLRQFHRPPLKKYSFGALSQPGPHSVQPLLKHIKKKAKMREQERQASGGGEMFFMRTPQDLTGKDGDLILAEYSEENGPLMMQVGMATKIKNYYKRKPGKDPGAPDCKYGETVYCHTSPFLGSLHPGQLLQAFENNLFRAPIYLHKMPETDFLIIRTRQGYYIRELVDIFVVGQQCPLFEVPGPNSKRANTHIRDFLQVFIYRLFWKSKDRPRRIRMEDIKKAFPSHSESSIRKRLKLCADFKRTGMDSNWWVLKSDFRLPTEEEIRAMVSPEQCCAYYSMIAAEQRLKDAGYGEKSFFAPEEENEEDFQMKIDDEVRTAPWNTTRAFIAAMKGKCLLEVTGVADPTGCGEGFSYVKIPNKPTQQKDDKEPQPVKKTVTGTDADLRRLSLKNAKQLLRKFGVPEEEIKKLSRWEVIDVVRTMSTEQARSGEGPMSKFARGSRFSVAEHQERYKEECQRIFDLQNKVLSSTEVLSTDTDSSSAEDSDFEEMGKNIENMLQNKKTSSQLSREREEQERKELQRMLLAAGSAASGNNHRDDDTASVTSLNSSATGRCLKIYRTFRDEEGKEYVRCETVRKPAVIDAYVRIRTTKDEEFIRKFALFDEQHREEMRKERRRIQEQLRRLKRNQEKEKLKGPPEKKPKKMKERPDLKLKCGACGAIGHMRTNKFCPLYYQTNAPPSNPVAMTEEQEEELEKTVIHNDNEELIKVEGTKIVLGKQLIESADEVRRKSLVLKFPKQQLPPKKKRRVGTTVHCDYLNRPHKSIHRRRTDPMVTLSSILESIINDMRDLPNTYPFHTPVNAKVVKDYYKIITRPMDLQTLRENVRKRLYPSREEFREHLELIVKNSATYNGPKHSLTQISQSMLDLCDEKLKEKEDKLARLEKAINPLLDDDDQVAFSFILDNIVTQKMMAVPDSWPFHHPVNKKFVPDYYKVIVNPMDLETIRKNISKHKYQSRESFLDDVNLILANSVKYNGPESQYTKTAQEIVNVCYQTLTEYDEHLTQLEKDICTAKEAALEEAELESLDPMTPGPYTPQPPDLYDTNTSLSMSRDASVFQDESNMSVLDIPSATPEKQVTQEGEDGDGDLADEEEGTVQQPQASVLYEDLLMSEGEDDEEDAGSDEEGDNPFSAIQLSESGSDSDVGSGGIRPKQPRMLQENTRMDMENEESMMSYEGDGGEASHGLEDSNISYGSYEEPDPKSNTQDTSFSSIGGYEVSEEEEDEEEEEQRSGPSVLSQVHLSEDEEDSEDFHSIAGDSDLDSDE

The first assay addresses T1, Bromodomain-containing protein 4 (Homo sapiens, UniProt O60885). As to the kind of experiment: Displacement of biotinylated small-molecule ligand from recombinant His-tagged BRD4 bromodomain 2 (unknown origin) measured after 10 mins by TR-FRET assay.
Conditions: not given
In general terms: TR-FRET usually uses a lanthanide donor and a delayed reading to cut background.
On to `C/C=C/Cn1cc(-c2ccc(C(=O)N3CCOCC3)c(C)c2)c2cc(C)[nH]c2c1=O`, for which the IC50 (commonly the point on the concentration scale where inhibition reaches its midpoint) was 14.4 µM.
On the same count and under the same terms, as for `C/C=C/Cn1cc(-c2ccc(C(C)(C)O)cc2)c2cc[nH]c2c1=O`, the figure is 6.1 µM; as for `C/C=C/Cn1cc(-c2ccc(C(=O)N3CCOCC3)c(Cl)c2)c2cc(C)[nH]c2c1=O`, 12.3 µM; as for `C/C=C/Cn1cc(-c2ccc(C(=O)N3CCOCC3)c(C#N)c2)c2cc(C)[nH]c2c1=O`, 13.5 µM.
Still for that read-out and setting: the same measure for `C/C=C/Cn1cc(-c2ccc(C(=O)N3CCOCC3)cc2)c2cc(C)[nH]c2c1=O`: 6.7 µM; for `C/C=C/Cn1cc(-c2ccc(C(=O)N3CCOCC3)c(OC)c2)c2cc(C)[nH]c2c1=O`: 17.4 µM.

The subject of the next assay is PC-9. Kind of assay: Cytotoxicity against human PC-9 cells assessed as decrease in cell number at 1 uM supplemented with fresh medium containing compound every 3 days for 9 days by Beckman Coulter counting method. Set-up: scale not given: the % may be the effect or the level left. It counts as functional. Particulars: time 3 day.
On to `C#Cc1cccc(Nc2ncnc3cc(OCCOC)c(OCCOC)cc23)c1` [ERLOTINIB], for which the Activity is above 98%.

A further assay concerns PC-9. As to the kind of experiment: Cytotoxicity against human PC-9 cells assessed as decrease in cell number at 50 nM supplemented with fresh medium containing compound every 3 days for 9 days by Beckman Coulter counting method. It counts as functional, cell-based. As to conditions: time 3.0 day.
Take `CC(/C=C/C(=O)NO)=C\[C@@H](C)C(=O)c1ccc(N(C)C)cc1`: the result was inactive.

The target of another assay is T1, Bromodomain-containing protein 4. Kind of assay: Displacement of biotinylated small-molecule ligand from recombinant His-tagged BRD4 bromodomain 1 (unknown origin) measured after 10 mins by TR-FRET assay.
Conditions: not given
Take `C/C=C/Cn1cc(-c2ccc(C(=O)N3CCOCC3)c(C)c2)c2cc(C)[nH]c2c1=O`: the half-inhibitory concentration (IC50) was 6 µM.
Take `C/C=C/Cn1cc(-c2ccc(C(C)(C)O)cc2)c2cc[nH]c2c1=O`: the IC50 is 3.3 µM.
For `C/C=C/Cn1cc(-c2ccc(C(=O)N3CCOCC3)c(Cl)c2)c2cc(C)[nH]c2c1=O`, the IC50 is 3.5 µM.
The same measure, in the same setting: as for `C/C=C/Cn1cc(-c2ccc(C(=O)N3CCOCC3)c(C#N)c2)c2cc(C)[nH]c2c1=O`, the figure is 4.2 µM; as for `C/C=C/Cn1cc(-c2ccc(C(=O)N3CCOCC3)cc2)c2cc(C)[nH]c2c1=O`, 1.6 µM; as for `C/C=C/Cn1cc(-c2ccc(C(=O)N3CCOCC3)c(OC)c2)c2cc(C)[nH]c2c1=O`, 3.3 µM.

For the next assay, the system named is PC-9. Kind of assay: Cytotoxicity against human PC-9 cells assessed as decrease in drug tolerant population at 50 nM supplemented with fresh medium containing compound every 3 days for 9 days in presence of erlotinib by Beckman Coulter counting method. It counts as functional, cell-based. Particulars: time 9.0 day.
For `CC(/C=C/C(=O)NO)=C\[C@@H](C)C(=O)c1ccc(N(C)C)cc1`, the outcome was Active.

A further assay concerns the target Transcription initiation factor TFIID subunit 1 (Homo sapiens, UniProt P21675). As to the kind of experiment: Displacement of biotinylated small-molecule ligand from recombinant His-tagged TAF1 bromodomain 2 (unknown origin) measured after 10 mins by TR-FRET assay.
Conditions: not given
For `C/C=C/Cn1cc(-c2ccc(C(=O)N3CCOCC3)c(C)c2)c2cc(C)[nH]c2c1=O`, the IC50 worked out at 2.8 µM.
Same read-out and setting: the same measure for `C/C=C/Cn1cc(-c2ccc(C(C)(C)O)cc2)c2cc[nH]c2c1=O`: 5.5 µM.
Consider `C/C=C/Cn1cc(-c2ccc(C(=O)N3CCOCC3)c(Cl)c2)c2cc(C)[nH]c2c1=O`, for which the IC50 was 1.4 µM.
Still for that read-out and setting: the same measure for `C/C=C/Cn1cc(-c2ccc(C(=O)N3CCOCC3)c(C#N)c2)c2cc(C)[nH]c2c1=O`: 0.52 µM; for `C/C=C/Cn1cc(-c2ccc(C(=O)N3CCOCC3)cc2)c2cc(C)[nH]c2c1=O`: 0.75 µM.
The same measure, in the same setting: as for `C/C=C/Cn1cc(-c2ccc(C(=O)N3CCOCC3)c(OC)c2)c2cc(C)[nH]c2c1=O`, the figure is 1.7 µM.

Another assay addresses Chromatin remodeling regulator CECR2 (Homo sapiens, UniProt Q9BXF3). As to the kind of experiment: Displacement of biotinylated small-molecule ligand from recombinant His-tagged CECR2 (unknown origin) measured after 10 mins by TR-FRET assay.
Conditions: not given
As to `C/C=C/Cn1cc(-c2ccc(C(=O)N3CCOCC3)c(C)c2)c2cc(C)[nH]c2c1=O`, the IC50 is 1 µM.
On the same count and under the same terms, as for `C/C=C/Cn1cc(-c2ccc(C(C)(C)O)cc2)c2cc[nH]c2c1=O`, the figure is 4.7 µM.
For the compound `C/C=C/Cn1cc(-c2ccc(C(=O)N3CCOCC3)c(Cl)c2)c2cc(C)[nH]c2c1=O`, the IC50 amounted to 0.46 µM.
Regarding `C/C=C/Cn1cc(-c2ccc(C(=O)N3CCOCC3)c(C#N)c2)c2cc(C)[nH]c2c1=O`, the IC50 stood at 0.37 µM.
Still for that read-out and setting: as for `C/C=C/Cn1cc(-c2ccc(C(=O)N3CCOCC3)cc2)c2cc(C)[nH]c2c1=O`, the figure is 0.81 µM; as for `C/C=C/Cn1cc(-c2ccc(C(=O)N3CCOCC3)c(OC)c2)c2cc(C)[nH]c2c1=O`, 1 µM.
